According to the supplement of paper PMC10883282:
Structures can show the parent of a compound that is named as a salt. ± gives the standard deviation of the averaged measurements.

Test system: MES-SA
Assay: relative viability vs DMSO control (72 h) (fraction); higher = more viable cells
Method in brief: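 Percent growth from ATPLite readings, averaged over up to triplicate wells, was used as relative viability. Sarcoma cell lines were seeded into 384-well plates for 80–90% confluence, dosed after 24 h, and kept 72 h at 37 °C, 5% CO2. Data were rescaled to a range where 1 is full and 0 is none.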

SMILES | relative viability (0.00017 µM) | relative viability (0.00051 µM) | relative viability (0.00152 µM) | relative viability (0.00457 µM) | relative viability (0.01372 µM) | relative viability (0.04115 µM) | relative viability (0.1235 µM) | relative viability (0.3704 µM) | relative viability (1.111 µM) | relative viability (3.333 µM) | relative viability (10 µM)
Cc1cc(C)c(/C=C2\C(=O)Nc3ccccc32)[nH]1 [Semaxanib] | 0.908 ± 0.058 | 0.866 ± 0.02 | 0.866 ± 0.022 | 0.892 ± 0.027 | 0.882 ± 0.04 | 0.861 ± 0.061 | 0.871 ± 0.059 | 0.895 ± 0.035 | 0.889 ± 0.044 | 0.867 ± 0.041 | 0.798 ± 0.048
CC1(C)CNc2cc(NC(=O)c3cccnc3NCc3ccncc3)ccc21 [Motesanib] | 0.93 ± 0.044 | 0.946 ± 0.034 | 0.962 ± 0.01 | 0.937 ± 0.023 | 0.949 ± 0.061 | 0.947 ± 0.047 | 0.961 ± 0.02 | 1 ± 0.044 | 0.96 ± 0.035 | 0.948 ± 0.013 | 0.849 ± 0.041
CNC(=O)c1ccc(-c2cnc3ncc(Cc4ccc5ncccc5c4)n3n2)cc1F [Capmatinib] | 0.93 ± 0.025 | 0.959 ± 0.037 | 0.958 ± 0.028 | 0.953 ± 0.057 | 0.943 ± 0.012 | 0.945 ± 0.036 | 0.982 ± 0.012 | 0.934 ± 0.012 | 0.937 ± 0.055 | 0.867 ± 0.035 | 0.837 ± 0.025
CC(C)N1CCN(Cc2cnc(-c3cc(-c4cccc5[nH]ccc45)cc4[nH]ncc34)o2)CC1 [Nemiralisib] | 0.967 ± 0.032 | 0.961 ± 0.022 | 0.953 ± 0.05 | 0.958 ± 0.05 | 0.977 ± 0.033 | 0.926 ± 0.039 | 0.979 ± 0.047 | 0.964 ± 0.043 | 0.911 ± 0.024 | 0.764 ± 0.028 | 0.486 ± 0.027
CO[C@H]1C[C@@H]2CC[C@@H](C)[C@@](O)(O2)C(=O)C(=O)N2CCCC[C@H]2C(=O)O[C@H]([C@H](C)C[C@@H]2CC[C@@H](OP(C)(C)=O)[C@H](OC)C2)CC(=O)[C@H](C)/C=C(\C)[C@@H](O)[C@@H](OC)C(=O)[C@H](C)C[C@H](C)/C=C/C=C/C=C/1C [Ridaforolimus] | 0.888 ± 0.04 | 0.827 ± 0.055 | 0.599 ± 0.0079 | 0.489 ± 0.015 | 0.423 ± 0.021 | 0.403 ± 0.024 | 0.4 ± 0.0088 | 0.368 ± 0.027 | 0.376 ± 0.0059 | 0.367 ± 0.023 | 0.374 ± 0.024
Nc1cc(C(F)(F)F)c(-c2cc(N3CCOCC3)nc(N3CCOCC3)n2)cn1 [Buparlisib] | 0.897 ± 0.012 | 0.902 ± 0.0092 | 0.895 ± 0.011 | 0.932 ± 0.022 | 0.907 ± 0.023 | 0.872 ± 0.022 | 0.811 ± 0.022 | 0.677 ± 0.025 | 0.208 ± 0.01 | 0.0825 ± 0.0014 | 0.037 ± 0.0019
Cc1ccc(F)c(NC(=O)Nc2ccc(-c3cccc4[nH]nc(N)c34)cc2)c1 [Linifanib] | 0.979 ± 0.013 | 0.968 ± 0.02 | 0.942 ± 0.014 | 0.956 ± 0.035 | 0.974 ± 0.01 | 0.971 ± 0.015 | 0.969 ± 0.011 | 0.918 ± 0.033 | 0.935 ± 0.01 | 0.75 ± 0.21 | 0.933 ± 0.014
N#CC[C@H](C1CCCC1)n1cc(-c2ncnc3[nH]ccc23)cn1 [Ruxolitinib] | 1.02 ± 0.024 | 1.01 ± 0.024 | 0.997 ± 0.015 | 0.962 ± 0.058 | 0.992 ± 0.03 | 0.979 ± 0.058 | 0.957 ± 0.042 | 0.981 ± 0.02 | 0.84 ± 0.04 | 0.825 ± 0.042 | 0.679 ± 0.035
C=CC(=O)Nc1cccc(Oc2nc(Nc3ccc(N4CCN(C)CC4)cc3)nc3ccsc23)c1 [Olmutinib] | 0.931 ± 0.038 | 0.964 ± 0.027 | 0.916 ± 0.037 | 0.937 ± 0.055 | 0.918 ± 0.036 | 0.955 ± 0.045 | 0.968 ± 0.035 | 0.954 ± 0.012 | 0.9273 ± 0.0055 | 0.751 ± 0.029 | 0.448 ± 0.025
CCCS(=O)(=O)Nc1ccc(F)c(C(=O)c2c[nH]c3ncc(-c4ccc(Cl)cc4)cc23)c1F [Vemurafenib] | 0.941 ± 0.024 | 0.951 ± 0.025 | 0.957 ± 0.013 | 0.957 ± 0.026 | 0.955 ± 0.031 | 0.953 ± 0.018 | 0.967 ± 0.028 | 0.995 ± 0.022 | 0.9726 ± 0.0075 | 0.782 ± 0.02 | 0.51 ± 0.01
Cc1ccc(NC(=O)c2ccc(CN3CCN(C)CC3)cc2)cc1Nc1nc(-c2cccnc2)cs1 [Masitinib] | 0.978 ± 0.013 | 0.969 ± 0.014 | 0.955 ± 0.021 | 0.96 ± 0.028 | 0.952 ± 0.011 | 0.956 ± 0.015 | 0.912 ± 0.025 | 0.905 ± 0.026 | 0.735 ± 0.029 | 0.445 ± 0.017 | 0.11 ± 0.011
Cc1cnc(Nc2ccc(OCCN3CCCC3)cc2)nc1Nc1cccc(S(=O)(=O)NC(C)(C)C)c1 [Fedratinib] | 0.966 ± 0.046 | 0.959 ± 0.035 | 0.953 ± 0.026 | 0.937 ± 0.029 | 0.949 ± 0.025 | 0.907 ± 0.018 | 0.861 ± 0.018 | 0.679 ± 0.03 | 0.2659 ± 0.0019 | 0.18 ± 0.0027 | 0.028 ± 0.0026
C[C@@H](c1ccc2nccn2c1)n1nnc2ncc(-c3cnn(C)c3)nc21 [Volitinib] | 0.91 ± 0.021 | 0.92 ± 0.053 | 0.97 ± 0.022 | 0.927 ± 0.043 | 0.959 ± 0.019 | 0.957 ± 0.026 | 0.929 ± 0.039 | 0.949 ± 0.029 | 0.926 ± 0.018 | 0.942 ± 0.018 | 0.902 ± 0.035
COc1cccc2c1C(=O)c1c(O)c3c(c(O)c1C2=O)C[C@@](O)(C(=O)CO)C[C@@H]3O[C@H]1C[C@H](N)[C@H](O)[C@H](C)O1 [Doxorubicin Hydrochloride] | 0.975 ± 0.028 | 0.937 ± 0.042 | 0.934 ± 0.024 | 0.89 ± 0.024 | 0.66 ± 0.036 | 0.39 ± 0.0073 | 0.313 ± 0.01 | 0.201 ± 0.0045 | 0.0143 ± 0.0029 | 0.0402 ± 0.002 | 0.03487 ± 0.00029
CCN1CCN(Cc2ccc(Nc3ncc(F)c(-c4cc(F)c5nc(C)n(C(C)C)c5c4)n3)nc2)CC1 [Abemaciclib] | 0.883 ± 0.026 | 0.901 ± 0.035 | 0.878 ± 0.02 | 0.873 ± 0.031 | 0.876 ± 0.05 | 0.84 ± 0.046 | 0.736 ± 0.037 | 0.61 ± 0.031 | 0.435 ± 0.012 | 0.361 ± 0.0072 | 0.348 ± 0.023
C=CC(=O)N1CCC([C@@H]2CCNc3c(C(N)=O)c(-c4ccc(Oc5ccccc5)cc4)nn32)CC1 [Zanubrutinib] | 0.9598 ± 0.0038 | 0.965 ± 0.013 | 0.959 ± 0.026 | 0.983 ± 0.033 | 0.918 ± 0.031 | 0.95 ± 0.037 | 0.92 ± 0.041 | 0.965 ± 0.034 | 0.955 ± 0.018 | 0.881 ± 0.041 | 0.742 ± 0.034
COc1cc2/c(=N/c3ccc(Br)cc3F)nc[nH]c2cc1OCC1CCN(C)CC1 [Vandetanib] | 0.907 ± 0.02 | 0.925 ± 0.033 | 0.9 ± 0.013 | 0.932 ± 0.041 | 0.909 ± 0.053 | 0.907 ± 0.054 | 0.926 ± 0.022 | 0.909 ± 0.035 | 0.804 ± 0.029 | 0.6028 ± 0.0021 | 0.127 ± 0.0064
C[C@@H]1COCCN1c1cc(-c2ccnn2C)c2ccnc(-c3ccn[nH]3)c2n1 | 0.952 ± 0.028 | 0.934 ± 0.025 | 0.9269 ± 0.0056 | 0.924 ± 0.028 | 0.878 ± 0.013 | 0.752 ± 0.019 | 0.489 ± 0.012 | 0.31 ± 0.022 | 0.175 ± 0.0043 | 0.122 ± 0.0046 | 0.113 ± 0.003
C[C@]1(O)C[C@@H](c2nc(-c3ccc4ccc(-c5ccccc5)nc4c3)c3c(N)nccn32)C1 [Linsitinib] | 0.983 ± 0.02 | 0.958 ± 0.021 | 0.9582 ± 0.0041 | 0.926 ± 0.015 | 0.962 ± 0.015 | 0.943 ± 0.025 | 0.958 ± 0.035 | 0.898 ± 0.024 | 0.887 ± 0.01 | 0.784 ± 0.0085 | 0.63 ± 0.023
